Measured values published in patent publication US12617779B2, “Self degradation-type CDK9 inhibitor prodrug and liposome encapsulating same” (Sumitomo Pharma Co., Ltd., priority 2021, dated 2026).

Experiment: Evaluation of conversion rate to active form in buffer solution (Experimental Example 1)
Assay type: physicochemical
Description: For Examples 1 to 16 and Comparative Examples 1 to 14, the attrition rate of the test compound and the conversion rate of the test compound to Alvocidib in a buffer solution were calculated by the following method.
Examples 1 to 16 and Comparative Examples 1 to 14 were each left in buffer solutions adjusted to pH 5.0, 5.5, 6.0, 6.5, 7.0 and 7.4, respectively, at a concentration of 25 umol/L at 37° C. After 0, 0.5, 1, 2 and 3 hours, the residual rates of the compounds of Examples […] and the production rate of Alvocidib were determined by HPLC.
The buffer solutions used at each pH are as follows. • pH 5.0: 50 mM citrate buffer solution (pH 5.0) • pH 5.5: 50 mM citrate buffer solution (pH 5.5) • pH 6.0: 50 mM phosphate buffer solution (pH 6.0) • pH 6.5: 50 mM phosphate buffer solution (pH 6.5) • pH 7.0: 50 mM phosphate buffer solution (pH 7.0) • pH 7.4: 50 mM phosphate buffer solution (pH 7.4)
The measurement conditions for HPLC are as follows.

For `CCCCCCC(=O)O[C@@H]1CN(C)CC[C@@H]1c1c(O)cc(O)c2c(=O)cc(-c3ccccc3Cl)oc12` [Comparative Example 11, reference compound], the “Production rate of Alvocidib” value (pH7.4, 0 hr) was 1.0%, the Residual rate (pH7.4, 0 hr) was 92.9% and the “Conversion to Alvocidib at pH 7.4” value (pH 7.4, 37° C., up to 3 hours) was “slowly converted to Alvocidib”. The “Production rate of Alvocidib” value (pH7.4, 0.5 hr) was 1.2%, the Residual rate (pH7.4, 0.5 hr) was 92.3% and the “Production rate of Alvocidib” value (pH7.4, 1 hr) was 1.3%. For the same compound, the Residual rate (pH7.4, 1 hr) was 91.8%, the “Production rate of Alvocidib” value (pH7.4, 2 hr) was 1.5% and the Residual rate (pH7.4, 2 hr) was 91.3%.
